“Also recorded” adds a separate entry of the source. Like-named read-outs stand apart in the source and are kept apart here.
Key:
N-VSMC [1] = assay: Cell proliferation (cell number) of N-VSMC cultures; type: cell-based, chicken; conditions: for effect on increase in cell number in the presence of H[cys]: 1% FBS and 100 μM H[cys]; for cell damage after treatment for ten days: low levels of PKC inhibitors, growth after removal
Protocol: FIGS. 5A and 5B are graphs illustrating cell growth and DNA synthesis of N-VSMC cultures. (A) Cells were cultured in M199 supplemented with 1% FBS in the presence and absence of 100 μM H[cys]. The medium was renewed every three days and cell numbers were determined by Coulter counter or emocytometer. Each point represents the mean of quadruplicate samples counted six times. (B) Cells were grown to confluency, growth arrested in M199 and 1 μg/ml of bovine serum albumin for two days. Cultures were exposed to various concentrations of H[cys] (0.01-1000 μM) for 30 h, pulse labeled for 6 h with 2 μCi/ml of [^3H]thymidine. The amount of [^3H]thymidine incorporation was determined by scintillation spectrophotometry. Results are shown as the mean of ±S.E.M.
FIGS. 7A-7C are graphs illustrating the effect of H[cys] on diacylglycerol content in N-VSMC. (A) Time course of changes of membrane diacylglycerol content cell treated with 100μM H[cys] for the various times. Cells were recovered, membrane lipids extracted and diacylglycerol amounts determined as described in Methods. Results are expressed as the mean ± standard error of quadruplicate incubations from six independent experiments. (B) Effects of varying concentrations of H[cys] on diacylglycerol synthesis. Cells were treated for 30 min with different concentrations of H[cys] and membrane lipids were isolated and the diacylglycerol content determined. (C) Effect of PKC inhibitors on H[cys] mediated cell proliferation. N-VSMC cultures were grown in 1% FBS and 100 μM H[cys] in the presence and absence of staurosporine and cheleyrithrine chloride for the times (days-d) indicated. Cells were counted in quadruplicate in a Coulter counter every three days. Values represent the mean ±S.D. from four independent experiments.
(§1) Smooth Muscle Culture: The thoracic (N) and abdominal (M) aorta of normal 16 and 18-day embryos were cleaned of fat, and the intima-media was isolated from the adventitia. The intima-media was enzymatically dispersed into a single cell suspensions by a combination of collagenase and elastase followed by trypsin. VSMC were placed in primary culture at a constant density of 2×10^4 cells/cm^2 in multiwell plates or 100 mm culture plates in Medium 199 supplemented with 10% fetal bovine serum (FMS) and 2 mM glutamine, in an atmosphere of 95% air: 5% Co2 at 37° C. Primary cultures were grown for 7 days before they were seeded into first passage at the same cell density and grown to confluence. Experiments were carried out between passages 3-6. Experimental conditions for all cells included 48 h in Medium 199 supplemented with 1% FBS prior to initiating and experiment.

TA-VSMCs = assay: [3H]thymidine labeling (DNA synthesis) in TA-VSMCs; type: cell-based
Description: Effect of calcium channel activation on DNA synthesis. Effect of glutamate receptor calcium channels and L-type calcium channels activation was examined by measuring [^3H]thymidine labeling.

c-myb [2] = assay: c-myb expression in N-VSMC (RT-PCR, immunoprecipitation and western blot); type: cell-based, chicken; conditions: for effect on homocysteine-induced c-myb induction: 200 μM H[cys], 50 μM Mk-801 or 1 mM CGS19755, 24 hours
Protocol: FIGS. 3A, 3B and 3C are RNA blot analyses of c-fos and c-myb mRNA isolated from N-VSMC cultures. Cultures were incubated in the absence and presence of 200μM H[cys] for 0, (lane 1); 15 min, (lane 2); 30 min, (lane 3); 45 min, (lane 4) and 60 min, (lane 5); and analyzed for c-fos expression. In FIG. 3B, the time course of c-myb MRNA induction in the presence of 200μM H[cys] for 0 h, (lane 1); 8 h, (lane 2); 16 h, (lane 3); 24 h, (lane 4). The c-fos transcripts were analyzed by northern blot and normalized to β actin expression. The amount of c-myb mRNA levels were normalized to estrogen receptor (ER) transcripts as determined by RT-PCR. […] The amount of c-myb mRNA levels were normalized to estrogen receptor (ER) transcripts as determined by RT-PCR. The amount of specific radiolabeling in the autoradiograph was quantified by scanning densitometry. The size of the c-Myb protein is 75 kilodaltons. The 75 kilodalton band is defined as c-Myb because immunoprecipitation of this protein was not detected in the presence of synthetic polypeptide [[…] encoded by sequences 1080-1133].
FIG. 4 is a graph illustrating the analysis of c-myb synthesis in response to NMDA receptor antagonist, Mk-801 and CGS19755. Immunoprecipitation and western blotting of radiolabeled c-Myb from N-VSMC treated with 200μMH[cys] in the presence and absence of 50 μM Mk-801 or 1 mM CGS19755. Cell cultures were treated with and without H[cys] for 24 hours, extracts were immunoprecipitated with anti c-myb IgG and samples were separated by SDS-PAGE gels and western blotted. The amount of specific radiolabeling in the autoradiograph was quantified by scanning densitometry. The size of the c-Myb protein is 75 kilodaltons. The 75 kilodalton band is defined as c-Myb because immunoprecipitation of this protein was not detected in the presence of synthetic polypeptide [I13-[…] encoded by sequences 1080-1133].
RNA Blot Analysis: Total RNA was isolated from VSMC derived from thoracic and abdominal aorta by homogenization, and lysis with guanidinium isothiocyanate was followed by phenol-chloroform extraction. Ten micrograms of total RNA per lane was separated in a 1.5% agarose-formaldehyde gel, and the RNA was transferred by capillary transfer to a 0.45 μm nylon membrane. Filters were hybridized as previously with cDNAs labeled with [^32P]deoxycytidine5′-triphosphate to specific activities of approximately 2×10^9 cpm/μg using a random prime labeling kit (Boehringer Mannheim Biochemicals, Indianapolis, Ind.). The probes included chicken c-fos, Bactin, estrogen receptor (ER) and c myb.
Reverse Transcriptase-Polymerase Chain Reaction: Reverse transcription of 4 to 10,000 nanograms (ng) of RNA using 10 picomoles (pm) of hexamer primers was performed for 90 minutes (min) at 37° C. using 200 units superscript reverse transcriptase (Gibco BRL), in 50 mM Tris, pH, 8.2, 75 Mm KC1, 3 mM MgCl2, 10 mM dithiothreitol (DTT), 1 unit/μ1 RNasin (Promega), and 1 mM each of DATP, dCTP, dGTP, and dTTP. The samples were heated at 95° C. for 5 min to terminate the reverse transcription. The resulting cDNA was treated with 1 unit of […] at 37° C. for 20 min. A 5% fraction of the cDNA was subjected to PCR using c-myb upstream (5′ggTCCTTTgAAgATgCTgCC3′) and downstream(5′[…]gAgTCCgggTTg3′) primers; estrogen receptor (ER) (5′ggACTgCCAgCTgCCgATCTT3′) and (5′CTCACgAATgTggCgCCT3′) primers; β actin (5′AAgAggTAATCCTgACCCCTgAA3′) and (5′ACCCTgACCATCAgggAgTTCA3′) primers. PCR was performed using 0.25 μM of each primer, 3 μM cDNA, 0.2 mM of each deoxynucleotide triphosphate, 75 mM KC1, 1.5 mM MgCl2 and 0.5 unit Taq polymerase (Perkin Elmer; Cetus) in 10 mM Tris-HC1, pH 8.3 with total volume of 100 μl. […] PCR products were analyzed by electrophoresis in 1.5% agarose gels stained with ethidium bromide. PCR amplifications of all target templates and controls were run in parallel or on the same sample. […]

c-myb [3] = assay: c-myb expression in TA-VSMCs; type: cell-based; conditions: NMDA receptor blockers
[4] = test system: Thoracic aorta VSMC from E14 embryos; assay: Intracellular Ca++ by Fura 2 fluorometry; type: cell-based, chicken; conditions: 15 min pretreatment
Protocol: FIGS. 8A and 8B are graphs illustrating E14 embryonic neural crest-derived response to Hcy. (A) Normal E14 cell response; (B) Ca++ influx is prevented by 15 min pretreatment with NMDA receptor blocker MK801, which acts at the NMDA receptor calcium channel.
The most common signaling device for mitosis is calcium influx. Therefore, the inventors measured the change in intracellular Ca^++ by Fura 2 fluorometry. Thoracic aorta VSMC from E14 embryos were harvested and grown on coverslips using the procedure set forth above. Fura 2 was added during 45 minutes at room temperature. Then the cover slips were placed in a photometer. Fura 2 was excited at 350 and 380 nm with a xenon light source, appropriate monochromators and a chopper (Deltascan, Princeton). Emitted signals passed through a 510±20 band pass filter. When the cells were treated with a solution of 200 μM Hcy, there was a rapid flux of Ca^++ that reached a plateau in about 50 seconds, and remained elevated for the duration of the 500 sec measurement interval as shown in FIGS. 8A and 8B. Similar results have been found with adult rabbit aortic smooth muscle cells, as set forth below.

N-VSMC [5] = assay: [3H]thymidine incorporation (DNA synthesis) in N-VSMC cultures; type: cell-based, chicken
Protocol: FIG. 1 is a graph illustrating homocysteine's effects on the growth of VSMC cultures. Confluent N-VSMC cultures were growth arrested by incubating cells with M199 medium containing 1 μg/ml BSA for 48 h, exposed to various concentrations of H[cys] (0.01-4000μM) for 30 h, pulse labeled for 6 h with 2 μCi/ml [^3H]-thymidine, and cell monolayers were washed twice with cold (0° C.) 10% trichloroacetic acid (TCA). The amount of [^3H]-thymidine incorporation was determined by scintillation spectrophotometry. Results are shown as the means of ±S.D.
FIGS. 2A-2C are graphs illustrating the effects of glutamate, homocysteic acid and NMDA on DNA synthesis in N-VSMC. N-VSMC were cultured and serum-deprived as described in “Experimental Procedures.” Cultures were treated with various concentrations of homocysteic acid (2A), NMDA (2B), or L-glutamate (2C) for 30 and pulsed 6h with [^3H] thymidine. All values are expressed as ±S.D. of six independent experiments completed in quadruplicate.
as §1
DNA Synthesis: Growth factors were added directly to quiescent VSMCs in Medium 199 as described above. The cells were pulsed between 4-6 h with a final concentration of 2-5 μCi/ml [^3H]thymidine added at the times and for the periods indicated in the figure legends. The cells were washed, and the incorporation of [^3H]thymidine into acid insoluble material was determined as previously described. Den-Heijer, M. et al. (1996), Hyperhomocystinemia as a risk factor for deep-vein thrombosis. N. Eng. J. Med. 334(12):759-762.

[6] = high doses; cited from earlier work
VSMC = conditions: low concentrations

In the case of `O=C(O)[C@@H]1C[C@H](CP(=O)(O)O)CCN1` [CGS 19755], the “effect on homocysteine-induced cell proliferation” value (N-VSMC [1]) was “inhibited; also recorded: no increase in cell proliferation”, the “effect on homocysteine-induced cell proliferation” value (N-VSMC [1]; listed as CGS19755) was “block” and the “effect on NMDA and homocysteine DNA synthesis responses” value (TA-VSMCs) was “blocked”. For the same molecule, the “effect on homocysteine-induced c-myb induction” value (c-myb [2]) was “blocked”, the “effect on homocysteine-induced c-myb induction” value (c-myb [2]; listed as CGS19755) was “block” and the “effect on homocysteine effect on c-myb expression” value (c-myb [3]) was “blocked”.

With `O=C(O)CN(CCOCCOCCN(CC(=O)O)CC(=O)O)CC(=O)O` [EGTA] the “effect on stimulation of DNA synthesis” value (TA-VSMCs; chelation of extra cellular Ca2+ by addition to the medium) was “prevented”.

With `C[C@]12N[C@H](Cc3ccccc31)c1ccccc12` [MK-801] the “effect on Hcy-induced Ca++ influx” value [4] was “prevented”, the “effect on homocysteine-induced cell proliferation” value (N-VSMC [1]) was “inhibited” and the “effect on homocysteine-induced cell proliferation” value (N-VSMC [1]; listed as Mk-801) was “block”. For the same molecule, the “effect on NMDA and homocysteine DNA synthesis responses” value (TA-VSMCs) was “blocked”, the “effect on homocysteine-induced c-myb induction” value (c-myb [2]) was “completely suppressed; also recorded: block” and the “effect on homocysteine effect on c-myb expression” value (c-myb [3]) was “blocked”.

In the case of `CN[C@H](CC(=O)O)C(=O)O` [NMDA, N-methyl D-aspartate acid], the “activation of the same responses as H[cys]” value (N-VSMC [5]) was “do not significantly activate”, the “[3H] thymidine incorporation stimulated” value (N-VSMC [5]; 10 mM) was 2 fold and the “[3H] thymidine increased” value (TA-VSMCs; incubated with NMDA) was 2 fold. The “expression of Myb, agonist per se” value (c-myb [2]; embryonic smooth muscle cells) was “did not induce”.

In the case of `COc1ccc2c(c[n+](C)c3c4cc5c(cc4ccc23)OCO5)c1OC.[Cl-]` [cheleyrthrine chloride], the “effect on increase in cell number in the presence of H[cys]” value (N-VSMC [1]) was “blocked” and the “cell damage after treatment for ten days” value (N-VSMC [1]) was “did not permanently damage the cells”.

In the case of `COc1ccc2c(c1)[C@]13CCCC[C@@H]1[C@H](C2)N(C)CC3` [dextromethorphan], the side effects [6] is listed as “drowsiness, nausea, and decreased coordination”.

For `CCO` [ethanol], the “effect on pharmacological effect of homocysteine in VSMC” value (VSMC) was “completely blocked”.

With `N[C@@H](CCC(=O)O)C(=O)O` [glutamate, L-glutamate] the “activation of the same responses as H[cys]” value (N-VSMC [5]) was “do not significantly activate” and the “[3H] thymidine incorporation stimulated” value (N-VSMC [5]; 10 mM) was 2 fold.

In the case of `N[C@@H](CCS(=O)(=O)O)C(=O)O` [homocysteic acid], the “[3H] thymidine incorporation stimulated” value (N-VSMC [5]; 1 mM) was 2 fold.

In the case of `CN[C@@H]1C[C@H]2O[C@@](C)([C@@H]1OC)n1c3ccccc3c3c4c(c5c6ccccc6n2c5c31)C(=O)NC4` [staurosporine], the “effect on increase in cell number in the presence of H[cys]” value (N-VSMC [1]) was “blocked” and the “cell damage after treatment for ten days” value (N-VSMC [1]) was “did not permanently damage the cells”.

From patent US6469027B1, “N-methyl-D-aspartate (NMDA) receptor blockers for the prevention of atherosclerosis” (The Board of Regents of the University of Nebraska, priority 1996, dated 2002)
